Assays:
[1] = molecular target: T1, hAR in PC-3 cells (Homo sapiens, UniProt P10275); experiment: AR transactivation luciferase assay (pSG5-hAR + pMMTV-luc); type: cell-based; conditions: 10 nM DHT
T1 construct: full length hAR in pSG5 expression vector; expressed in transfected cells; host or cells: PC-3 (AR-negative)
T1 sequence (P10275 1-920): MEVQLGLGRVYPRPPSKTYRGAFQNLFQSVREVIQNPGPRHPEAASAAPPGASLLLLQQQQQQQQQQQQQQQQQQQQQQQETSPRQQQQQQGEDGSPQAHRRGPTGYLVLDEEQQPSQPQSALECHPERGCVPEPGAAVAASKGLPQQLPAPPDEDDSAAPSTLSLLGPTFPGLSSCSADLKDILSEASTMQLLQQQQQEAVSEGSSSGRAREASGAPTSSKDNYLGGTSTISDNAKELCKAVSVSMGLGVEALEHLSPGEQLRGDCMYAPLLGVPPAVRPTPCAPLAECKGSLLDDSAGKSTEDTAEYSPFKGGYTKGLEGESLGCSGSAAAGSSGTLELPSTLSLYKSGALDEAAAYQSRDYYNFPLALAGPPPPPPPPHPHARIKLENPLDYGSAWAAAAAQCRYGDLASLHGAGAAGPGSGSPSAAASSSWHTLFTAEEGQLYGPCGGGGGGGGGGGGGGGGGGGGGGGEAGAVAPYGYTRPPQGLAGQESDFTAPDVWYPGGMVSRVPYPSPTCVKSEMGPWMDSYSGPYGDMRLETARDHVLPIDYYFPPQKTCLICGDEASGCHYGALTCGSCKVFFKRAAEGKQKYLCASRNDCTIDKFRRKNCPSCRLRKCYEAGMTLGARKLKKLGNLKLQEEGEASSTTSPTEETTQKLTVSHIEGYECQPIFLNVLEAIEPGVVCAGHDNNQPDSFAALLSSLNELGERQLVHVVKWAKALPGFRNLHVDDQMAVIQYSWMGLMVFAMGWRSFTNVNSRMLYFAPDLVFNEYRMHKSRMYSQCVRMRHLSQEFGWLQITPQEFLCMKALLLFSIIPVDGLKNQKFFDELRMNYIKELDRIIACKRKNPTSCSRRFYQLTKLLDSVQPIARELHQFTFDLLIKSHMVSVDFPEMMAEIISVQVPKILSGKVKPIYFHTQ
Description: The LNCaP cells were grown and transiently transfected with pMMTV-neomycin-luciferase plasmid (300 ng/10^5 cells) in RPMI media supplemented with 10% FBS using polyfect transfection reagent (Qiagen, CA, USA) according to manufacturer’s instructions. Then, 24 h after transfection, the cell culture media were changed with media containing 5% charcoal-stripped FBS to reduce the contaminating steroids from the serum and incubated for an additional day before initiating the treatments. In case of PC-3 cells, they were similarly transfected, but in addition to pMMTV-neomycin-luciferase construct, they were also transfected with pSG5-hAR-puro plasmid (full length hAR in pSG5 expression vector) in the ratio of 5∶1 as indicated above. For experiments involving co-regulators, 50 ng of co-activator plasmids (25 ng each of GRIP-1 and SRC-1) along with pMMTV-neo-luc (250 ng) were transfected to LNCaP cells. To evaluate the transfection efficiency, 500 ng/105 cells of the SV40 promoter-Renilla luciferase (pRL-SV40) vector (Promega Madison, USA) were co-transfected as internal control. […] Each experimental point was performed in triplicate and varied by less than 10%. The values of luciferase for each lysates were normalized to the Renilla luciferase activity.

[2] = system: LNCaP cells; experiment: Annexin-V/PI apoptosis assay by flow cytometry; type: cell-based, human; conditions: 24 h
Description: (§1) Cell cycle distribution and Annexin V/Propidium iodide (PI) positive cells were analyzed using flow cytometry. In brief, first the cells were seeded and treated with 0, 10, 20 and 40 μM conjugate in complete medium for 24 h. This was followed by trypsinizing and fixing in 70% ethanol, and finally washing with PBS. Subsequently, the cells were treated with RNase A (50 μg/ml), stained with PI (50 μg/ml) and incubated in the dark for 30 min at room temperature and analyzed by flow cytometry for cell cycle distribution. For apoptosis, the conjugate treated cells were stained with Alexa-Fluor 488-conjugated Annexin-V using the Vybrant-Apoptosis Assay Kit from Invitrogen (USA) as per the manufacturer’s protocol. The stained cells were then analyzed by fluorescence activated cell sorting (FACS Calibur, BD Biosciences, San Jose, CA, USA) and the data were standardized using Cell Quest 3.3 software.

[3] = system: PC-3 cells; experiment: Annexin-V/PI apoptosis assay by flow cytometry; type: cell-based, human; conditions: 24 h
Description: as §1

[4] = system: p-ERK in LNCaP cells; experiment: Immunoblot of ERK phosphorylation; type: cell-based, human; conditions: highest dose, 24 h
Description: The whole-cell lysates were prepared as described previously in immunoprecipitation (IP) buffer containing 50 mM Tris-HCl (pH 8.0), 150 mM NaCl, 5 mM EDTA, and 1% Triton X-100. Protein aliquots of 500 μg were then incubated overnight at 4°C using 2 μg of antibody directed against AR. The Protein A-Cl Agarose beads were then added and further incubated for 6 h at 4°C. The immunoprecipitates were washed four times with the IP buffer and the immunocomplexes were recovered by boiling in SDS sample buffer. Finally the western blot was carried out using anti-AR, anti-SRC-1 and anti-GRIP-1 antibodies (Santa Cruz, CA, USA). For western blot analysis, the cell lysates were prepared after harvesting them in lysis buffer. About 40 μg of total protein was electrophoresed by 12% SDS-PAGE, and the western blotting was carried out using standard protocol. In brief, the analyzed proteins were transferred to nylon membranes. The blots were then blocked with TBST buffer (20 mM Tris-Cl, pH 7.5, 150 mM sodium chloride, 0.05% Tween-20) containing 5% skim milk powder. They were then washed with TBST buffer and incubated overnight at 4°C with the same buffer containing appropriate amounts of primary antibodies: caspase-3, Bax, Bcl-2, Akt, p-Akt, ERK, p-ERK, AR, SRC-1, GRIP-1 (1∶500) and β-actin (1∶1000). […]

[5] = system: AR protein in LNCaP cells; experiment: Immunoblot of AR protein; type: cell-based, human; conditions: for inhibition of DHT induced AR protein levels: 10 nM DHT; for inhibition of AR protein levels: absence of DHT
Description: The whole-cell lysates were prepared as described previously in immunoprecipitation (IP) buffer containing 50 mM Tris-HCl (pH 8.0), 150 mM NaCl, 5 mM EDTA, and 1% Triton X-100. Protein aliquots of 500 μg were then incubated overnight at 4°C using 2 μg of antibody directed against AR. The Protein A-Cl Agarose beads were then added and further incubated for 6 h at 4°C. The immunoprecipitates were washed four times with the IP buffer and the immunocomplexes were recovered by boiling in SDS sample buffer. Finally the western blot was carried out using anti-AR, anti-SRC-1 and anti-GRIP-1 antibodies (Santa Cruz, CA, USA). For western blot analysis, the cell lysates were prepared after harvesting them in lysis buffer. About 40 μg of total protein was electrophoresed by 12% SDS-PAGE, and the western blotting was carried out using standard protocol. In brief, the analyzed proteins were transferred to nylon membranes. The blots were then blocked with TBST buffer (20 mM Tris-Cl, pH 7.5, 150 mM sodium chloride, 0.05% Tween-20) containing 5% skim milk powder. They were then washed with TBST buffer and incubated overnight at 4°C with the same buffer containing appropriate amounts of primary antibodies: caspase-3, Bax, Bcl-2, Akt, p-Akt, ERK, p-ERK, AR, SRC-1, GRIP-1 (1∶500) and β-actin (1∶1000). The blots were then washed and incubated with anti-rabbit secondary antibody (1∶20,000) conjugated with horseradish peroxidase (HRP). Color development was performed in the dark by using an ECL kit (Amersham, GE Healthcare, Buckinghamshire, UK). The developed blots were subjected to densitometric analysis by ImageJ 1.43 software (NIH, USA) using β-actin as internal control.

reduction of DHT-mediated luciferase activity ([1]; PC-3, 5 μM): 19%
reduction of DHT-mediated luciferase activity ([1]; PC-3, 10 μM): 31%
reduction of DHT-mediated luciferase activity ([1]; PC-3, 20 μM): 63%
reduction of DHT-mediated luciferase activity ([1]; PC-3, 30 μM): 70%
reduction of DHT-mediated luciferase activity ([1]; PC-3, 40 μM): 80%
Structure (SMILES): COc1cc(/C=C/c2ccc(O)c(/C=N/NC(N)=S)c2)cc(OC)c1 [conjugate, Pterostilbene-isothiocyanate conjugate]
early apoptotic cells (Annexin V positive only, lower right quadrant) ([2]; 20 μM): 52%
late apoptotic cells (Annexin V and PI positive, upper right quadrant) ([2]; 20 μM): 8%
late apoptotic cells (Annexin V and PI positive, upper right quadrant) ([2]; 40 μM): 18.5%
early apoptotic cells (Annexin V positive only, lower right quadrant) ([3]; PC-3, 20 μM): about 44%
late apoptotic cells (Annexin V and PI positive, upper right quadrant) ([3]; PC-3, 20 μM): 12%
early apoptotic cells (Annexin V positive only, lower right quadrant) ([3]; PC-3, 40 μM): ~68%
late apoptotic cells (Annexin V and PI positive, upper right quadrant) ([3]; PC-3, 40 μM): 16%
inhibition of p-ERK [4]: almost completely inhibited
inhibition of DHT induced AR protein levels ([5]; 10 μM): 1.1 folds
inhibition of AR protein levels ([5]; 10 μM): 2 folds
inhibition of DHT induced AR protein levels ([5]; 20 μM): 1.8 folds
inhibition of AR protein levels ([5]; 20 μM): 5 folds

Source: article PMC3974779, “Pterostilbene-Isothiocyanate Conjugate Suppresses Growth of Prostate Cancer Cells Irrespective of Androgen Receptor Status” (PLoS ONE, 2014)
